Measured values reported in patent publication US6762200B2, “Oxa(thia)zolidine derivative and anti-inflammatory drug” (Nippon Soda Co. Ltd., priority 2000, dated 2004).

Experiments:
TPA-induced ear edema = assay type: in vivo, ICR-strain male mouse; conditions: topical, 0.3 mg/20 μL/ear × 2; 6 hours after TPA
Protocol: This test was carried out referring to the method of Carlson, R. P. et al. (Agents and Actions, 17(2): 197-204 (1985).) and the method of Chang, J. (European Journal of Pharmacology, 142: 197-205 (1987).). […] 6 hours later, the thickness of each ear at the particular part was respectively measured three times using a digimatic micrometer to calculate the mean value. Ear edema was determined by subtracting the mean thickness of the left ear as without treatment from that of the right ear as TPA-applied. […] As the positive control, 100 mg/kg of Hydrocortisone (Sigma Chemical Co., H 4001) suspension was applied to the mouse similarly as for the compound of the present invention.

[1] = test system: acetic acid-induced writhes; assay: Acetic acid writhing; assay type: in vivo, ICR-strain male mouse; conditions: i.p., 10 to 20 min after acetic acid
Protocol: This test was carried out referring to the method of Inoue, K., Motonaga, A. & Nishimura, T (Arzneimittel Forshung/Drug Research, 41 (1): 235-239 (1991)). More specifically, 7.5 mL/kg of 0.9% acetic acid solution was injected intraperitoneally into an ICR-strain male mouse (5 to 7 weeks old), and the induced writhes (characteristic behaviors of convulsive contracting the abdomen, twisting the body and/or extending the legs) were observed. Number of writhes of each mouse was measured during 10 to 20 min. period after acetic acid administration. The compound of the present invention was homogeneously suspended in 2% Tween 80/saline for injection use, and was injected intraperitoneally 30 min. before the induction by the acetic acid injection. Alternatively, the compound of the present invention was homogeneously suspended in 2% Tween 80/distilled water, and was administrated orally two hours before the induction by the acetic acid injection. The analgesic activity of the compounds according to the present invention was evaluated on the basis of the degree of inhibiting the number writhes by the administration of the compounds. As the positive control, indomethacin or aspirin was administrated. The analgesic activity of the compounds according to the present invention measured in this test were exemplified in Table 7.

IV-cPLA(2) = target: T1, IV-cPLA(2) (Homo sapiens, UniProt P47712); assay: PLA(2) activity, hydrolysis of bis-BODIPY FL C11-PC in activated U937 cells; assay type: cell-based; conditions: for inhibition at 0.1 µM: U-937, 0.1 μM
T1 sequence (P47712 1-749): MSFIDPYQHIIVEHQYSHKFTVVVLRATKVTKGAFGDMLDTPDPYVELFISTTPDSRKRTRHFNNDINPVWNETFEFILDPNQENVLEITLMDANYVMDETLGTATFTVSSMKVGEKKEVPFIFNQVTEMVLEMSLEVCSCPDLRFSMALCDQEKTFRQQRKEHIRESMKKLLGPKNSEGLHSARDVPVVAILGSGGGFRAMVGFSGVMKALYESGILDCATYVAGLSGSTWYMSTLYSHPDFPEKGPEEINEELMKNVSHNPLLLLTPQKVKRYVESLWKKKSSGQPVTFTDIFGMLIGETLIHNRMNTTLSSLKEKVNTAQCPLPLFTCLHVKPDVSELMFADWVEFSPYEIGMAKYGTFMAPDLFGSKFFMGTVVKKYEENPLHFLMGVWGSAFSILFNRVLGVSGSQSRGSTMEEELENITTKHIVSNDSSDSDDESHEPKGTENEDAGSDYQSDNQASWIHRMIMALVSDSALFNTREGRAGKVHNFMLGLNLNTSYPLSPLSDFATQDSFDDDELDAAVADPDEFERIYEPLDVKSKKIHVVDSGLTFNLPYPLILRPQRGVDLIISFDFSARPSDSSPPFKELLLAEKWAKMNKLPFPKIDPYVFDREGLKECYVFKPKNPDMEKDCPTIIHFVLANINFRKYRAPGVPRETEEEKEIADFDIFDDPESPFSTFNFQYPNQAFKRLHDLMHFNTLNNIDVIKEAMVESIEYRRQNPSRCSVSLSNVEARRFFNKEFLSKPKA
Protocol: The PLA(2) activity was measured by quantitatively analyzing the fluorescent product of hydrolysis from 1,2-bis-(4,4-difluoro-5,7-dimethyl-4-bora-3a,4a-diaza-s-indecene-3-undecanoyl)-sn-glycero-3-phosphocholine (hereinafter referred to bis-BODIPY®FL C11—PC, Molecular Probes, Inc., B-7701) using activated U937 cells (human monoblastic lymphoma cell line) by inflammatory stimulus (Meshulam, T. et al., The journal of Biological Chemistry 267 (30): 21465-21470 (1992); and Solito, E. et al., British Journal of Pharmacology 124: 1675-1683 (1998).). The substrate bis-BODIPY®FL C11—PC is incorporated into cellular membranes, the proximity of the BODIPY FL fluorophores on adjacent phospholipid acyl chains causes fluorescence self-quenching. Separation of the fluorophores upon hydrolytic cleavage of one of the acyl chains by PLA(1) or the PLA(2) results in increased fluorescence. In the activated U937 by inflammatory stimulus, it is shown that this substrate should be cleaved enzymatically by IV-cPLA(2) from the feature of its behaviors including sensitivity profiles against the inhibitors.
The human cell line U937 was purchased from Dai-Nippon Pharmaceuticals Co., Ltd. The cells were maintained by transferring every 3-4 days into RPMI 1640 medium (Sigma Chemical Co., R6504) supplemented with heat-inactivated 10% fetal bovine serum (Fetal Bovine Serum, Sigma Chemical Co., F 4135) in a 5% CO2 humidified atmosphere at 37° C. The cells were transferred into the culture medium described above, containing 1.2% (v/v) dimethylsulfoxide (hereinafter referred to as […], Nacalai tesque Co., Ltd., D 134-45), and pre-cultured for 96 to 120 hours so as to differentiate into the macrophage-like cells to be provided for the assay. The macrophage-like cells were collected and washed by centrifugation with the Assay medium (Dulbecco's phosphate buffered saline (hereinafter referred to as PBS)-2.2 mM glucose-2.5 μm albumin). Then, Phorbol 12-Myristate 13-Acetate (hereinafter referred to as TPA, Sigma Chemical Co., P 8139) was added to the Assay medium to be 1×10^−8M as the final concentration. Then, the macrophage-like cells were further cultured for an hour to be activated (Rzigalinski, B. A. & Rosenthal, M. D., Biochimica et Biophysica Acta 1223: 219-225 (1994); and Gonchar, M. V. et al., Biochemical and Biophysical Research Communication, 249: 829-832 (1998).).
For preparing substrate liposome suspension, bis-BODIPY®FL C11—PC was combined with phosphatidylcholine (Sigma Chemical Co., P 7769) at 1:9 molar ratio in chloroform, and dried under nitrogen flow. The dried mixture was suspended with the Assay medium at 100 μg/mL, voltexed and sonicated for an hour on ice under dark condition.
The test compound was dissolved with DMSO at 30 mM, and the solution diluted with either DMSO or the Assay medium before addition into the reaction mixture. The DMSO concentration in the reaction mixture was controlled so as to be no more than 0.1%. The 30-fold concentration of test compound solution was put into each well of MICRPTEST™ Tissue Culture Plate, 96 Well (Falcon, 3072) at a rate of 2.5 μL/well. To the respective well was added 25 μL/well of the activated U937 cell suspension ([…]), and the cells were pre-cultured for 120 min. at 37° C. in a 5% CO2 atmosphere incubator. 47.5 μL/well of the substrate liposome suspension with 1.5×10^−6M A23187 (Sigma Chemical Co., C 7522) was added into each well to prepare 75 μL/well of the total reaction mixture, followed by culture for 30 min. under the same conditions with shielding against light. 100 μL/well of 0.1% GEDTA (Dojindo Laboratories Co. Ltd., 348-01311) methanol solution was added into each well and mixed to stop the reaction. […]

Structure (SMILES) | Ear Edema Inhibition (%) (TPA-induced ear edema) | Number of writhes (Mean ± S.E.) ([1]; 1 mg/kg) | Inhibition (%) (IV-cPLA(2); 0.01 μM) | Inhibition (%) (IV-cPLA(2); 0.1 μM) | Number of writhes (Mean ± S.E.) ([1]; 0.3 mg/kg) | melting point [°C] | inhibition at 0.1 µM (IV-cPLA(2)) [%]
Cc1ccc(C2SC(=O)N(C(=O)NC3CCCCO3)C2C)cc1 (centres unmarked) [Compound 2-189] | 84 | 0.8 ± 0.5 | 86 |  |  |  | 
CN=C1OC(c2ccc(C)cc2)C(C)N1C(=O)NC1CCCCO1 (centres unmarked) [Compound 1-22] | 56 | 12.7 ± 4.1 |  | 84 |  |  | 
COC1CCCC(NC(=O)N2C(=O)OC(c3ccc4c(c3)CCCC4)C2C)O1 (centres unmarked) [Compound 2-135] | 84 | 0.8 ± 0.8 | 64 |  |  |  | 
CCOC(=O)CCC(NC(=O)N1C(=O)SC(c2ccc(Cl)cc2)C1C)C(=O)OCC (centres unmarked) [Compound 2-26] | 86 |  |  | 77 | 9.8 ± 1.9 |  | 
C[C@@H]1NC(=N[N+](=O)[O-])O[C@H]1c1ccc(Cl)cc1 (relative stereo) [Compound 1-10, trans-5-(4-chlorophenyl)-4-methyl-2-nitroiminooxazolidine] |  |  |  |  |  | 123 to 126 | 79
C[C@H]1[C@H](c2ccc(Cl)cc2)OC(=N[N+](=O)[O-])N1Cc1ccc(Cl)nc1 (relative stereo) [Compound 1-12, trans-5-(4-chlorophenyl)-4-methyl-3-(2-chloro-5-pyridylmethyl)-2-nitroiminooxazolidine] | 79 | 10.0 ± 1.1 |  |  |  |  | 52
